Patent US20030161827A1, “Therapies that improve graft survival” (priority 2000, published 2003)

Test system: renal allograft
Assay: Unilateral renal transplantation, mAb and sirolimus (Example 2)
Format: in vivo, monkey
Conditions: n=4 per group; treatment until day 56, followed until day 119
Method: Unilateral renal transplantation was performed in 12 blood group matched and MLR mismatched animals. […] Sirolimus was administered by daily gavage at 1 mg/kg at day 0 to day 13 and then 0.5 mg/kg from day 13 to day 56. All animals were off immunosuppression after day 56 and were then followed until day 119.

## CO[C@H]1C[C@@H]2CC[C@@H](C)[C@@](O)(O2)C(=O)C(=O)N2CCCC[C@H]2C(=O)O[C@H]([C@H](C)C[C@@H]2CC[C@@H](O)[C@H](OC)C2)CC(=O)[C@H](C)/C=C(\C)[C@@H](O)[C@@H](OC)C(=O)[C@H](C)C[C@H](C)/C=C/C=C/C=C/1C [sirolimus]
  mean survival: 23 days
